Measurements as given in patent publication US20100311756A1, “METHODS FOR DELAYING THE PROGRESSION OF AT LEAST ONE OF CARDIAC HYPERTROPHY, CARDIAC REMODELING OR LEFT VENTRICULAR FUNCTION OR THE ONSET OF HEART FAILURE IN SUBJECTS IN NEED OF TREATMENT THEREOF” (TAKEDA PHARMACEUTICALS NORTH AMERICA, INC., priority 2009, published 2010).

Assay: Serum uric acid level in rabbits (unpublished observations, 1998)
Assay type: in vivo
Settings: oral dose of 10 mg/kg
Description: The procedures used in this study were reviewed and approved by the Institutional Animal Care and Use Committee (IACUC) of QTest Labs for compliance with regulations and current accepted practices. All applicable sections of the Final Rules of the Animal Welfare Act regulations (Section 9 CFR) and the Public Health Service Policy on Humane Care and Use of Laboratory Animals (OPRR, NIH, 1986) were followed. At the end of the study, all animals were humanely euthanized in accordance with accepted guidelines of the American Veterinary Medical Association (See, American Veterinary Medicine Association (AVMA), 2000 Report of the AVMA Panel on Euthanasia, The Journal of the American Veterinary Medical Association, 218(5):669-696 (2001)). • Drugs Febuxostat and allopurinol (Sigma-Aldrich, St. Louis, Mo., USA) were each formulated as a suspension in 0.5% methylcellulose (Sigma-Aldrich, St. Louis, Mo.) as the vehicle. The febuxostat oral dose of 10 mg/kg was estimated to provide a similar plasma level of febuxostat as the clinically efficacious dose (See, Khosravan et al., Clinical Pharmacokinetics, 45(8):821-841 (2006)). […] Allopurinol was given orally at 60 mg/kg. […] The rabbits were anesthetized with an intramuscular injection of ketamine (35 mg/kg)/xylazine (5 mg/kg) and pre-surgery enrofloxacin (12 mg/kg). […]

## Cc1nc(-c2ccc(OCC(C)C)c(C#N)c2)sc1C(=O)O [febuxostat, 2-[3-cyano-4-(2-methylpropoxy)phenyl]-4-methylthiazole-5-carboxylic acid]
  Serum uric acid level: significant reduction
